In US6048715A, “Two-phase partition affinity separation system and affinity separated cell-containing composition” (priority 1996, dated 2000):

Target: T1, CBDN1 (Cellulomonas fimi, UniProt P14090)
T1 construct: Cex leader peptide (secretion signal of the vector) (N); made in house; purified from the culture supernatant
T1 sequence (P14090 33-184): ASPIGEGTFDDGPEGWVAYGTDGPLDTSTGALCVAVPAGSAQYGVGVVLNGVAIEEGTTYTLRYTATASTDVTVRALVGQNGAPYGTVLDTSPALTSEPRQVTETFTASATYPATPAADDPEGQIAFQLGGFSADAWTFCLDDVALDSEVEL
Experiment: Isothermal titration microcalorimetry of oligosaccharide binding
Conditions: N1 binding, 35° C., Table 8
Text: The PBP can be obtained following isolation and purification of the enzyme by clipping off the PBP from the remainder of the enzyme. For use in the phase separation system, the PBP is screened for binding to soluble phase-forming oligosaccharides. While any of a number of methods can be used for screening, including NMR alone, NMA/calorimetry, affinity electrophoresis alone, affinity electrophoresis/competition assay, and binding isotherms. Binding equilibrium studies using isothermal titration microcalorimetry (ITC) are preferred. The advantage of isothermal titration microcalorimetry […] in binding equilibrium studies derives from the fact that binding isotherms are defined by the experiment in terms of heats of reaction; as such, they allow a direct estimation of enthalpy (and entropy (changes in addition to the association constant. Thus, a single microcalorimetric titration provides a complete characterization of the binding energetics along with the binding isotherm. (Haynes et al., J. Colloid Interface Sci., (1994) 169:313; Colloids & Surfaces, (1994) 2:517.
Microcalorimetry was used to measure binding thermodynamics for CBDN1 to a wide range of water-soluble oligosaccharides with the aim of identifying a set of suitable ligands for the affinity partition system. […] For both oligosaccharides,CPDN1 binding is as tight or even tighter than nearly all PEG-based affinity ligands (e.g., Cibacron blue-PEG, Procion red-PEG, dinitrophenyl-PEG, diacetic acid-PEG) currently in use in affinity partition systems.

| SMILES | -TΔS^o | ΔH^o |
| --- | --- | --- |
| OC[C@H]1O[C@@H](O[C@H]2[C@H](O)[C@@H](O)[C@H](O[C@H]3[C@H](O)[C@@H](O)[C@H](O[C@H]4[C@H](O)[C@@H](O)[C@H](O[C@H]5[C@H](O)[C@@H](O)[C@H](O[C@H]6[C@H](O)[C@@H](O)C(O)O[C@@H]6CO)O[C@@H]5CO)O[C@@H]4CO)O[C@@H]3CO)O[C@@H]2CO)[C@H](O)[C@@H](O)[C@@H]1O (stereo partly drawn) [Cellohexaose] | 0.79 kcal/mol | -6.9 ± 0.2 kcal/mol |
| OC[C@H]1O[C@@H](O[C@H]2[C@H](O)[C@@H](O)[C@H](O[C@H]3[C@H](O)[C@@H](O)[C@H](O[C@H]4[C@H](O)[C@@H](O)[C@H](O[C@H]5[C@H](O)[C@@H](O)C(O)O[C@@H]5CO)O[C@@H]4CO)O[C@@H]3CO)O[C@@H]2CO)[C@H](O)[C@@H](O)[C@@H]1O (stereo partly drawn) [Cellopentaose] | 0.86 kcal/mol | -6.8 ± 0.2 kcal/mol |
| OC[C@H]1O[C@@H](O[C@H]2[C@H](O)[C@@H](O)[C@H](O[C@H]3[C@H](O)[C@@H](O)[C@H](O[C@H]4[C@H](O)[C@@H](O)C(O)O[C@@H]4CO)O[C@@H]3CO)O[C@@H]2CO)[C@H](O)[C@@H](O)[C@@H]1O (stereo partly drawn) [Cellotetraose] | 1.4 ± 0.1 kcal/mol | -6.4 ± 0.2 kcal/mol |
